Measurements published in US20050261177A1, “Compound” (priority 2001, published 2005).
Where two headings read alike, the source gives them in different places. Numbered stars: 1 amine (or outer) side, 2 acyl side, 3 side chain; on linkers, the order of the positions; unused ones are H or OH. Bridge positions count the residues as written; N and C are the ends. Square brackets hold non-standard residues; d marks the D form. Peptide text beside a SMILES is read from it. * marks the point of attachment. hTyr(3R-OH,3'-OSO3H) = N[C@H](C(=O)O)[C@H](O)Cc1ccc(O)c(OS(=O)(=O)O)c1; X3 = O=C(c1ccc(-c2cn3nc(-c4ccc(OC5CCN(c6ccccc6)CC5)cc4)sc3n2)cc1)*; X2 = COCCCCCCN1CCN(c2ccc(-c3nn4cc(-c5ccc(C(=O)*)cc5)nc4s3)cc2)CC1; X4 = C[C@H]1CC[C@H](N2CCN(c3ccc(-c4ccc(C(=O)*)cc4)cc3)CC2)CC1; Orn(3R-OH,Nδ-CH(CH2OH)2) = N[C@H](C(=O)O)[C@H](O)CCNC(CO)CO; X1 = CCCCCOC1CCN(c2ccc(-c3nnc(-c4ccc(C(=O)*)cc4)s3)cc2)CC1; Orn(4R-OH) = O=C([C@H](C[C@@H](O)CN[*:3])N[*:1])[*:2]; Pro(3S-OH,4S-Me) = C[C@H]1CN[C@H](C(=O)O)[C@H]1O; Hyp = O=C(O)[C@@H]1C[C@@H](O)CN1

Tested on: Candida albicans FP-633
Assay type: cell-based
Method: In vitro antimicrobial activity of the object compound of Examples 41, 46, 53 and 56 disclosed later was determined by MICs in mouse serum as described below.
The MICS in mouse serum were determined by the microdilution method using ICR mouse serum buffered with 20 mM HEPES buffer (pH 7.3) as a test medium. Inoculum suspension of 10^6 cells/ml were prepared by a hemocytometric procedure and diluted to obtain an inoculum size of approximately 1.0×10^3 cells/ml. Microplates were incubated at 37° C. for 24 hours in 5% CO2. The MICS were defined as the lowest concentrations at which no visible growth was observed.

[1] = Candida albicans FP-633, ICR mouse serum buffered with 20 mM HEPES (pH 7.3), 37° C., 24 hours, 5% CO2, lowest concentration with no visible growth

MIC (FP-633, 24 h, pH 7.3) [µg/mL]	SMILES	MIC [1] [µg/mL]
–	C[C@@H](O)[C@@H]1NC(=O)[C@@H](NC(=O)c2ccc(-c3ccc(N4CCN([C@H]5CC[C@H](C)CC5)CC4)cc3)cc2)C[C@@H](O)CNC(=O)[C@@H]2[C@@H](O)[C@@H](C)CN2C(=O)[C@H]([C@H](O)CCNC(CO)CO)NC(=O)[C@H]([C@H](O)Cc2ccc(O)c(OS(=O)(=O)O)c2)NC(=O)[C@@H]2C[C@@H](O)CN2C1=O [Example 53] (X4-[Orn(4R-OH)]T[Hyp][hTyr(3R-OH,3'-OSO3H)][Orn(3R-OH,Nδ-CH(CH2OH)2)][Pro(3S-OH,4S-Me)]; lactam 1-C)	<0.3
<0.3	CCCCCOC1CCN(c2ccc(-c3nnc(-c4ccc(C(=O)N[C@H]5C[C@@H](O)CNC(=O)[C@@H]6[C@@H](O)[C@@H](C)CN6C(=O)[C@H]([C@H](O)CCNC(CO)CO)NC(=O)[C@H]([C@H](O)Cc6ccc(O)c(OS(=O)(=O)O)c6)NC(=O)[C@@H]6C[C@@H](O)CN6C(=O)[C@H]([C@@H](C)O)NC5=O)cc4)s3)cc2)CC1 [Example 56] (X1-[Orn(4R-OH)]T[Hyp][hTyr(3R-OH,3'-OSO3H)][Orn(3R-OH,Nδ-CH(CH2OH)2)][Pro(3S-OH,4S-Me)]; lactam 1-C)	–
<0.3	COCCCCCCN1CCN(c2ccc(-c3nn4cc(-c5ccc(C(=O)N[C@H]6C[C@@H](O)CNC(=O)[C@@H]7[C@@H](O)[C@@H](C)CN7C(=O)[C@H]([C@H](O)CCNC(CO)CO)NC(=O)[C@H]([C@H](O)Cc7ccc(O)c(OS(=O)(=O)O)c7)NC(=O)[C@@H]7C[C@@H](O)CN7C(=O)[C@H]([C@@H](C)O)NC6=O)cc5)nc4s3)cc2)CC1 [Example 46] (X2-[Orn(4R-OH)]T[Hyp][hTyr(3R-OH,3'-OSO3H)][Orn(3R-OH,Nδ-CH(CH2OH)2)][Pro(3S-OH,4S-Me)]; lactam 1-C)	–
–	C[C@@H](O)[C@@H]1NC(=O)[C@@H](NC(=O)c2ccc(-c3cn4nc(-c5ccc(OC6CCN(c7ccccc7)CC6)cc5)sc4n3)cc2)C[C@@H](O)CNC(=O)[C@@H]2[C@@H](O)[C@@H](C)CN2C(=O)[C@H]([C@H](O)CCNC(CO)CO)NC(=O)[C@H]([C@H](O)Cc2ccc(O)c(OS(=O)(=O)O)c2)NC(=O)[C@@H]2C[C@@H](O)CN2C1=O [Example 41] (X3-[Orn(4R-OH)]T[Hyp][hTyr(3R-OH,3'-OSO3H)][Orn(3R-OH,Nδ-CH(CH2OH)2)][Pro(3S-OH,4S-Me)]; lactam 1-C)	<0.3
